From patent US20100144779A1, “Marine Alkalod Makaluvamines and Derivatives Thereof” (THE UAB RESEARCH FOUNDATION, priority 2007, published 2010)

Experiments:
Assay in all cases: NCI60 cell line screen (SRB)
Format in all cases: cell-based, human
[1] = system: HOP-92; conditions: HOP-92, Non-Small Cell Lung Cancer, 48 h
Method: (§1) This panel implements the NCI60 cell line screen, including leukemia, non-small cell lung cancer, colon cancer, central nervous system cancer, melanoma, ovarian cancer, renal cancer, prostate cancer and breast cancer. The cell lines tested are specified in Table 3.
(§2) Generally, the human tumor cell lines of the cancer screening panel are grown in RPMI 1640 medium containing 5% fetal bovine serum and 2 mM L-glutamine. For a typical screening experiment, cells are inoculated into 96 well microtiter plates in 100 μL at plating densities ranging from 5,000 to 40,000 cells/well depending on the doubling time of individual cell lines. After cell inoculation, the microtiter plates are incubated at 37° C., 5% CO2, 95% air and 100% relative humidity for 24 h prior to addition of experimental drugs. After 24 h, two plates of each cell line are fixed in situ with TCA, to represent a measurement of the cell population for each cell line at the time of drug addition (Tz). Experimental drugs are solubilized in dimethyl sulfoxide at 400-fold the desired final maximum test concentration and stored frozen prior to use. At the time of drug addition, an aliquot of frozen concentrate is thawed and diluted to twice the desired final maximum test concentration with complete medium containing 50 μg/ml gentamicin. Additional four, 10-fold or ½ log serial dilutions are made to provide a total of five drug concentrations plus control. Aliquots of 100 μl of these different drug dilutions are added to the appropriate microtiter wells already containing 100 μl of medium, resulting in the required final drug concentrations.
(§3) Following drug addition, the plates are incubated for an additional 48 h at 37° C., 5% CO2, 95% air, and 100% relative humidity. For adherent cells, the assay is terminated by the addition of cold TCA. Cells are fixed in situ by the gentle addition of 50 μl of cold 50% (w/v) TCA (final concentration, 10% TCA) and incubated for 60 minutes at 4° C. The supernatant is discarded, and the plates are washed five times with tap water and air dried. Sulforhodamine B (SRB) solution (100 μl) at 0.4% (w/v) in 1% acetic acid is added to each well, and plates are incubated for 10 minutes at room temperature. After staining, unbound dye is removed by washing five times with 1% acetic acid and the plates are air dried. Bound stain is subsequently solubilized with 10 mM trizma base, and the absorbance is read on an automated plate reader at a wavelength of 515 nm. For suspension cells, the methodology is the same except that the assay is terminated by fixing settled cells at the bottom of the wells by gently adding 50 μl of 80% TCA (final concentration, 16% TCA). Using the seven absorbance measurements (time zero, Tz, control growth, (control), and test growth in the presence of drug at the five concentration levels (Ti)), the percentage growth is calculated at each of the drug concentrations levels. Percentage growth inhibition is calculated as:
(§4) [(Ti−Tz)/(C−Tz)]×100 for concentrations for which Ti>/=Tz
(§5) [(Ti−Tz)/Tz]×100 for concentrations for which Ti<Tz.

[2] = system: A498; conditions: A498, Renal Cancer, 48 h
Method: as §1, §2, §3, §4, §5

[3] = system: HCT-116; conditions: HCT-116, Colon Cancer, 48 h
Method: as §1, §2, §3, §4, §5

[4] = system: NCI-H552; conditions: NCI-H552, Non-Small Cell Lung Cancer, 48 h
Method: as §1, §2, §3, §4, §5

[5] = system: HOP-62; conditions: HOP-62, Non-Small Cell Lung Cancer, 48 h
Method: as §1, §2, §3, §4, §5

[6] = system: HCC-2998; conditions: HCC-2998, Colon Cancer, 48 h
Method: as §1, §2, §3, §4, §5

[7] = system: SNB-19; conditions: SNB-19, CNS Cancer, 48 h
Method: as §1, §2, §3, §4, §5

[8] = system: MDA-MB-435; conditions: MDA-MB-435, Breast Cancer, 48 h
Method: as §1, §2, §3, §4, §5

[9] = system: MDA-MB-231/ATCC; conditions: Breast Cancer, 48 h
Method: as §1, §2, §3, §4, §5

[10] = system: HT-29; conditions: HT-29, Colon Cancer, 48 h
Method: as §1, §2, §3, §4, §5

[11] = system: SW-620; conditions: SW-620, Colon Cancer, 48 h
Method: as §1, §2, §3, §4, §5

[12] = system: DU-145; conditions: DU-145, Prostate Cancer, 48 h
Method: as §1, §2, §3, §4, §5

[13] = system: OVCAR5; conditions: OVCAR5, Ovarian Cancer, 48 h
Method: as §1, §2, §3, §4, §5

[14] = system: HL-60; conditions: HL-60, Leukemia, 48 h
Method: as §1, §2, §3, §4, §5

[15] = system: MOLT-4; conditions: MOLT-4, Leukemia, 48 h
Method: as §1, §2, §3, §4, §5

[16] = system: M14; conditions: M14, Melanoma, 48 h
Method: as §1, §2, §3, §4, §5

[17] = system: OVCAR4; conditions: OVCAR4, Ovarian Cancer, 48 h
Method: as §1, §2, §3, §4, §5

[18] = system: UACC-257; conditions: UACC-257, Melanoma, 48 h
Method: as §1, §2, §3, §4, §5

[19] = system: COLO 205; conditions: COLO 205, Colon Cancer, 48 h
Method: as §1, §2, §3, §4, §5

[20] = system: IGROV1; conditions: IGROV1, Ovarian Cancer, 48 h
Method: as §1, §2, §3, §4, §5

[21] = system: CAKI-1; conditions: CAKI-1, Renal Cancer, 48 h
Method: as §1, §2, §3, §4, §5

[22] = system: SK-MEL-2; conditions: SK-MEL-2, Melanoma, 48 h
Method: as §1, §2, §3, §4, §5

[23] = system: SF-539; conditions: SF-539, CNS Cancer, 48 h
Method: as §1, §2, §3, §4, §5

[24] = system: NCI-H23; conditions: NCI-H23, Non-Small Cell Lung Cancer, 48 h
Method: as §1, §2, §3, §4, §5

[25] = system: RXF 393; conditions: RXF 393, Renal Cancer, 48 h
Method: as §1, §2, §3, §4, §5

COc1ccc(CCNC2=CC3=NCCc4c[nH]c(c43)C2=O)cc1OC.O=C(O)C(F)(F)F [Compound 20]
GI50 ([1]; Homo sapiens): 1.03 µM | GI50 ([2]; Homo sapiens): 7.24 µM | GI50 ([3]; Homo sapiens): 2.4 µM | GI50 ([4]; Homo sapiens): 2.24 µM | GI50 ([5]; Homo sapiens): 5.17 µM | GI50 ([6]; Homo sapiens): 2.35 µM | GI50 ([7]; Homo sapiens): 3.26 µM | GI50 ([8]; Homo sapiens): 2.05 µM | GI50 ([9]; Homo sapiens): 3.21 µM | GI50 ([10]; Homo sapiens): 2.54 µM | GI50 ([11]; Homo sapiens): 3.09 µM | GI50 ([12]; Homo sapiens): 2.81 µM | GI50 ([13]; Homo sapiens, OVCAR-5): 5.14 µM | GI50 ([14]; Homo sapiens): 3.14 µM | GI50 ([15]; Homo sapiens): 4.95 µM | GI50 ([16]; Homo sapiens): 2.26 µM | GI50 ([17]; Homo sapiens, OVCAR-4): 1.16 µM | GI50 ([18]; Homo sapiens): 3.07 µM | GI50 ([19]; Homo sapiens): 1.39 µM | GI50 ([20]; Homo sapiens, IGROV-1): 4.24 µM | GI50 ([21]; Homo sapiens): 2.67 µM | GI50 ([22]; Homo sapiens): 0.73 µM | GI50 ([23]; Homo sapiens): 3.28 µM | GI50 ([24]; Homo sapiens): 2 µM

O=C(O)C(F)(F)F.O=C1C(NCCc2ccc3c(c2)OCO3)=CC2=NCCc3c[nH]c1c32 [Compound 6]
GI50 ([1]; Homo sapiens): 5.45 µM | GI50 ([2]; Homo sapiens): 6.03 µM | GI50 ([3]; Homo sapiens): 2.41 µM | GI50 ([4]; Homo sapiens): 2.62 µM | GI50 ([5]; Homo sapiens): 2.5 µM | GI50 ([6]; Homo sapiens): 1.56 µM | GI50 ([7]; Homo sapiens): 3.29 µM | GI50 ([8]; Homo sapiens): 1.89 µM | GI50 ([9]; Homo sapiens): 2.32 µM | GI50 ([10]; Homo sapiens): 2.07 µM | GI50 ([11]; Homo sapiens): 3.44 µM | GI50 ([12]; Homo sapiens): 1.35 µM | GI50 ([13]; Homo sapiens, OVCAR-5): 2.72 µM | GI50 ([14]; Homo sapiens): 1.92 µM | GI50 ([15]; Homo sapiens): 2.02 µM | GI50 ([16]; Homo sapiens): 1.43 µM | GI50 ([17]; Homo sapiens, OVCAR-4): 0.971 µM | GI50 ([18]; Homo sapiens): 2.97 µM | GI50 ([19]; Homo sapiens): 1.02 µM | GI50 ([20]; Homo sapiens, IGROV-1): 2.52 µM | GI50 ([21]; Homo sapiens): 1.77 µM | GI50 ([22]; Homo sapiens): 5.82 µM | GI50 ([23]; Homo sapiens): 2.21 µM | GI50 ([24]; Homo sapiens): 1.69 µM

CNC1=CC2=NCCc3c[nH]c(c32)C1=O [Compound 4a]
GI50 [1]: 1.28 µM | GI50 [2]: 20.7 µM | GI50 [3]: 2.94 µM | GI50 [4]: 4.13 µM | GI50 [5]: 1.28 µM | GI50 [6]: 4.91 µM | GI50 [7]: 3.43 µM | GI50 [8]: 1.8 µM | GI50 [9]: 3.13 µM | GI50 [10]: 2.54 µM | GI50 [11]: 3.1 µM | GI50 [12]: 2.29 µM | GI50 [13]: 17.3 µM | GI50 [14]: 2.54 µM | GI50 [15]: 1.97 µM | GI50 [16]: 2.57 µM | GI50 [17]: 1.08 µM | GI50 [18]: 2 µM | GI50 [19]: 1.75 µM | GI50 [20]: 2.9 µM | GI50 [21]: 1.95 µM | GI50 [22]: 1.67 µM | GI50 [23]: 2.39 µM | GI50 [24]: 2.46 µM | GI50 [25]: 4.22 µM

O=C(O)C(F)(F)F.O=C1C(NCc2ccc(F)cc2)=CC2=NCCc3c[nH]c1c32 [Compound 28]
GI50 ([1]; Homo sapiens): 1.68 µM | GI50 ([2]; Homo sapiens): 3.11 µM | GI50 ([3]; Homo sapiens): 0.715 µM | GI50 ([4]; Homo sapiens): 2 µM | GI50 ([5]; Homo sapiens): 3.79 µM | GI50 ([6]; Homo sapiens): 2.7 µM | GI50 ([7]; Homo sapiens): 1.79 µM | GI50 ([8]; Homo sapiens): 1.75 µM | GI50 ([9]; Homo sapiens): 0.725 µM | GI50 ([10]; Homo sapiens): 0.596 µM | GI50 ([11]; Homo sapiens): 1.82 µM | GI50 ([12]; Homo sapiens): 1.08 µM | GI50 ([13]; Homo sapiens, OVCAR-5): 2.37 µM | GI50 ([14]; Homo sapiens): 1.53 µM | GI50 ([15]; Homo sapiens): 0.793 µM | GI50 ([16]; Homo sapiens): 1.44 µM | GI50 ([17]; Homo sapiens, OVCAR-4): 1.09 µM | GI50 ([18]; Homo sapiens): 0.189 µM | GI50 ([19]; Homo sapiens): 0.365 µM | GI50 ([20]; Homo sapiens, IGROV-1): 1.43 µM | GI50 ([21]; Homo sapiens): 0.329 µM | GI50 ([22]; Homo sapiens): 4.53 µM | GI50 ([23]; Homo sapiens): 1.74 µM | GI50 ([24]; Homo sapiens): 0.521 µM | GI50 ([25]; Homo sapiens): ≤ 0.01 µM

O=C1C(NCc2ccccc2)=CC2=NCCc3c[nH]c1c32 [Compound 4c]
GI50 [1]: 0.308 µM | GI50 [2]: 16.5 µM | GI50 [3]: 0.306 µM | GI50 [4]: 1.69 µM | GI50 [5]: 3.7 µM | GI50 [6]: 2.61 µM | GI50 [7]: 1.96 µM | GI50 [8]: 2.03 µM | GI50 [9]: 0.439 µM | GI50 [10]: 0.488 µM | GI50 [11]: 1.07 µM | GI50 [12]: 1.79 µM | GI50 [13]: 2.67 µM | GI50 [14]: 0.325 µM | GI50 [15]: 0.315 µM | GI50 [16]: 1.28 µM | GI50 [17]: 0.624 µM | GI50 [18]: 0.315 µM | GI50 [19]: 0.378 µM | GI50 [20]: 0.793 µM | GI50 [21]: 0.298 µM | GI50 [22]: 5.2 µM | GI50 [23]: 1.91 µM | GI50 [24]: 1.47 µM | GI50 [25]: 2.09 µM
